Reference: US4808701A, “Cyclic peptides having appetite regulating activity” (Hoffmann-La Roche Inc., priority 1987, dated 1989)
Where a SMILES comes first, the peptide text is derived from it.

Tests used:
[1] = target: T1, 3H-CCK-8-(SO3H) binding, bovine striatum homogenate (Bos taurus, UniProt P79266); assay: In vitro receptor binding assay, bovine striatum; conditions: 0.15 nM 3H-CCK-8-(SO3H), 30 min, 25° C.; read-out: Bovine Striatum IC50 (inhibition of specific 3H-CCK-8-(SO3H) binding)
T1 construct: tissue homogenate (striatum 0.26 mg protein in 2 ml final volume; pancreas 0.165 mg protein in 1 ml final volume); from tissue; host or cells: bovine striatum membrane homogenate
T1 sequence (P79266 1-454): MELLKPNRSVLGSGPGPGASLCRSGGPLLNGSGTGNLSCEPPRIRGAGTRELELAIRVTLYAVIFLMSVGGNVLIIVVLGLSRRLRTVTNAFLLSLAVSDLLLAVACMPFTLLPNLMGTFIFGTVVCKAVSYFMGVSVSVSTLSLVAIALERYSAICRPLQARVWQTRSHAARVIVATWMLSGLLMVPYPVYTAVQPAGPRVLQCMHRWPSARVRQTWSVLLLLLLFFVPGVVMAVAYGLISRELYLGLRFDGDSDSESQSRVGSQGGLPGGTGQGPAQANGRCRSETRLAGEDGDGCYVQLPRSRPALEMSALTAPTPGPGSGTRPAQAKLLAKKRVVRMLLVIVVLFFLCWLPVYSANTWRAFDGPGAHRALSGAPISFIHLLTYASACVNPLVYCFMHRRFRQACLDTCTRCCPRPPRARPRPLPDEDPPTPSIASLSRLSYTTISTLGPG
Protocol: (§1) The tissue was homogenized 2× for approx. 15 sec. at 0° C. using a Polytron homogenizer at a setting of 6. The tissue was isolated by centrifugation at 48,000×g for 10 min. at 0° C. […] Samples were incubated for 30 min. at 25° C. and the incubation terminated by pouring the mixture onto a pre-wet Whatman GF/B filter on a Sandbeck Vacuum Filtration Manifold. The incubation tubes were washed with 2×3 ml of ice-cold HEPES Buffer #2 and the wash filtered through the GF/B filter. The filter was air dried for 10 min. and then placed in a scintillation vial with 12 ml of Beckman HP/b Ready-Solv scintillation cocktail. The vials were shaken for 2-12 hours and then counted using a Beckman Model 7800 liquid scintillation spectrometer.

[2] = target: T2, 3H-CCK-8-(SO3H) binding, rat pancreas homogenate (Rattus norvegicus, UniProt P30551); assay: In vitro receptor binding assay, rat pancreas; conditions: 0.15 nM 3H-CCK-8-(SO3H), 30 min, 25° C.; read-out: Rat Pancreas IC50 (inhibition of specific 3H-CCK-8-(SO3H) binding)
T2 construct: tissue homogenate (striatum 0.26 mg protein in 2 ml final volume; pancreas 0.165 mg protein in 1 ml final volume); from tissue; host or cells: rat pancreas membrane homogenate
T2 sequence (P30551 1-444): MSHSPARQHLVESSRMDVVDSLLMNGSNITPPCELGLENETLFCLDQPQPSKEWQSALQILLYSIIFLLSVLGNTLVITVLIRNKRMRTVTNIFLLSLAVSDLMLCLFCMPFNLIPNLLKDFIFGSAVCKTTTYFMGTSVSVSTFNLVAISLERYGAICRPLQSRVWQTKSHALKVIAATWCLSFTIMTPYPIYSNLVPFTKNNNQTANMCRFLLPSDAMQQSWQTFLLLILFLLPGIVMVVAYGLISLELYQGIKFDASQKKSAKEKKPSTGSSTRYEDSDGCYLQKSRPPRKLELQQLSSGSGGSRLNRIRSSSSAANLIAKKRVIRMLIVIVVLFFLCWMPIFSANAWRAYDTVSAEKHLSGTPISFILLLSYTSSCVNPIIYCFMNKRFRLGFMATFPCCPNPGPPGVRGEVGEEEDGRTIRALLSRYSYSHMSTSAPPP
Protocol: as §1

in vitro = conditions: human, real gastrointestinal fluid or homogenate
Protocol: The degradation was monitored by analytical HPLC on a micro Bondapack (C18 column (0.4×30 cm) with a linear gradient of 10-40% of 0.01M NH4 Ac/CH3 CN in 40 min. with a flow rate of 2 ml/min and detection at 225 nm.

[3] = system: food intake in lean and obese men; conditions: infusions in lean and obese men; cited from earlier work
[4] = system: food intake of meal-trained male Sprague-Dawley (CD) rats; assay: Two-meal feeding assay; assay type: in vivo, rat; conditions: dose 32 microgm/kg i.p. 15 min before first meal; mean ± SEM
Protocol: Male Sprague-Dawley (CD) rats weighing 180-200 grams (Charles River Breeding Laboratories) were acclimated to a 12 h light/dark cycle (6 a.m. to 6 p.m.) in a room kept at 22° C. They were subsequently fasted for two days, weighed, placed in individual cages, and a four-day period of meal training was begun. During this time the rats were given ground laboratory chow (Purina Lab Chow) in jars for one hour from 9:00 a.m. until 10:00 a.m., the jars were removed from 10:00 a.m. to 12:00 p.m., and placed back in the cages from 12:00 until 1:00 p.m. Under this `1-2-1` meal feeding regime, most rats learn to eat approximately as much per day during the two hours they have access to food as rats which have food ad libitum over the entire 24-hour day. On the fourth day, the rats were weighed again, and any which lost more than five grams body weight were excluded from the test. The animals were then distributed into experimental (n=5 to 6) and control groups (n=6-12), but not matched for body weight.
Peptides of the invention were suspended either in saline, if soluble, or in 1% gum arabic, if insoluble, at concentrations of 32 to 320 μg/ml/kg body weight and were administered intraperitonerally 15 min before the first meal on day 5 of meal feeding. […] Food intake was expressed as a mean and standard error of the mean as a percent of control values for the various groups. […]

SMILES: CSCC[C@@H]1NC(=O)[C@H](Cc2c[nH]c3ccccc23)NC(=O)CNC(=O)[C@@H](NC(=O)[C@H](Cc2ccc(OS(=O)(=O)O)cc2)NC(C)=O)CCCCNC(=O)C[C@@H](C(=O)N[C@@H](Cc2ccccc2)C(N)=O)NC1=O (HELM PEPTIDE1{[ac].[O=C([C@H](Cc1ccc(OS(=O)(=O)O)cc1)N[*:1])[*:2]].K.G.W.M.D.F.[am]}$PEPTIDE1,PEPTIDE1,3:R3-7:R3$$$V2.0)
- IC50 [1]: > 1000 nM
- IC50 [2]: 45 nM

SMILES: CCCC[C@@H]1NC(=O)[C@H](Cc2c[nH]c3ccccc23)NC(=O)CNC(=O)[C@@H](NC(=O)[C@H](Cc2ccc(OS(=O)(=O)O)cc2)NC(C)=O)CCCCNC(=O)C[C@@H](C(=O)N(C)[C@@H](Cc2ccccc2)C(N)=O)NC1=O (HELM PEPTIDE1{[ac].[O=C([C@H](Cc1ccc(OS(=O)(=O)O)cc1)N[*:1])[*:2]].K.G.W.[Nle].D.[meF].[am]}$PEPTIDE1,PEPTIDE1,3:R3-7:R3$$$V2.0)
- IC50 [1]: > 1000 nM
- IC50 [2]: 6600 nM

SMILES: CSCC[C@@H]1NC(=O)[C@H](Cc2c[nH]c3ccccc23)NC(=O)CNC(=O)[C@@H](NC(=O)[C@H](Cc2ccc(OS(=O)(=O)O)cc2)NC(C)=O)CCCNC(=O)C[C@@H](C(=O)N(C)[C@@H](Cc2ccccc2)C(N)=O)NC1=O (HELM PEPTIDE1{[ac].[O=C([C@H](Cc1ccc(OS(=O)(=O)O)cc1)N[*:1])[*:2]].[Orn].G.W.M.D.[meF].[am]}$PEPTIDE1,PEPTIDE1,3:R3-7:R3$$$V2.0)
- IC50 [1]: 52000 nM
- IC50 [2]: 13000 nM

SMILES: CSCC[C@H](NC(=O)[C@H](Cc1ccc(OS(=O)(=O)O)cc1)NC(=O)[C@@H](N)CC(=O)O)C(=O)NCC(=O)N[C@@H](Cc1c[nH]c2ccccc12)C(=O)N[C@@H](CCSC)C(=O)N[C@@H](CC(=O)O)C(=O)N[C@@H](Cc1ccccc1)C(N)=O [CCK-8, H-Asp-Tyr-(SO3 H)-Met-Gly-Trp-Met-Asp-Phe-NH2]
- IC50 [1]: 1 to 4.6 nM
- metabolised at 0.25 h, 0.5 mg/mL (in vitro): 90%
- metabolised at 1 h, 0.5 mg/mL (in vitro): 100%
- IC50 [2]: 1 to 3.2 nM
- Effect of infusion on food intake [3]: decrease food intake
- Food Intake 1st Meal [4]: 27 ± 17 % of Control
- Food Intake 2nd Meal [4]: 149 ± 6 % of Control

SMILES: CSCC[C@@H]1NC(=O)[C@H](Cc2c[nH]c3ccccc23)NC(=O)CNC(=O)[C@@H](NC(=O)[C@H](Cc2ccc(OS(=O)(=O)O)cc2)NC(C)=O)CCCCNC(=O)C[C@@H](C(=O)N(C)[C@@H](Cc2ccccc2)C(N)=O)NC1=O [Example 1] (HELM PEPTIDE1{[ac].[O=C([C@H](Cc1ccc(OS(=O)(=O)O)cc1)N[*:1])[*:2]].K.G.W.M.D.[meF].[am]}$PEPTIDE1,PEPTIDE1,3:R3-7:R3$$$V2.0)
- IC50 [1]: 3000 nM
- metabolised at 1 h, 0.5 mg/mL (in vitro): 1.4%
- IC50 [2]: 1500 nM

SMILES: CSCC[C@@H]1NC(=O)[C@H](Cc2ccc(OS(=O)(=O)O)cc2)NC(=O)CC[C@@H](C(=O)N[C@H](C(=O)N(C)[C@@H](Cc2ccccc2)C(N)=O)[C@@H](C)OS(=O)(=O)O)NC(=O)[C@H](Cc2c[nH]c3ccccc23)NC(=O)CNC1=O [Example 3] (HELM PEPTIDE1{[O=C([C@H](Cc1ccc(OS(=O)(=O)O)cc1)N[*:1])[*:2]].M.G.W.E.[C[C@@H](OS(=O)(=O)O)[C@H](N[*:1])C(=O)[*:2]].[meF].[am]}$PEPTIDE1,PEPTIDE1,1:R1-5:R3$$$V2.0)
- IC50 [1]: > 10000 nM
- IC50 [2]: > 10000 nM
